Data on 1 compound can be found in US20190352297A1, “SELECTIVE AURORA A KINASE INHIBITORS” (UNIVERSITAT BERN, priority 2017, published 2019).

“Also recorded” adds a separate entry of the source.

As usually defined, the IC50 is the midpoint of a concentration-inhibition curve.

The test system of experiment [1] is phospho-Histone H3 Ser10 (Aurora B). The experiment can be described thus: Phospho-Histone H3 Ser10 in cells (Aurora B activity). It is filed as cell-based, human. The procedure:
(§1) HeLa Kyoto cells were cultured in high-glucose DMEM with GlutaMAX (Life Technologies) media supplemented with 10% fetal calf serum (FCS) in a humidified 5% CO2 incubator at 37° C. For plasmid transfections, cells were seeded at 80-90% confluence. 4 μg of plasmid DNA in 100 μl OptiMEM and 4 μl of Lipofectamine 2000 (Life Technologies) in 100 μl OptiMEM were incubated in parallel for 5 minutes, mixed for 20 minutes and added to each well. All Aurora A clones were constructed using full-length Aurora A as a template with appropriate PCR primer pairs. […] GFP-Aurora AR137A and GFP-Aurora AW277A were engineered using a site directed mutagenesis kit (Agilent Technologies, no. 210515) with appropriate primers. For determining the mitotic index and the chromosome misalignment phenotype, cells were incubated with various concentrations of compounds for 20 h before analysis. Cells were likewise treated with 0.25 μM MLN8237 (Selleckchem, no. S1133) or 5 μM ZM447439 (Selleckchem, no. S1103). For flow cytometry analysis, 50 nM […] and 2.5 μM ZM447439 were used. For rescue experiments, HeLa Kyoto cells were first transfected with GFP-Aurora A, GFP-Aurora AR137A or GFP-Aurora AW277A for 20 h, followed by incubation with 9 for another 20 h before cells were fixed with cold methanol and stained. To assess the impact of compound 9 on cell cycle progression, DNA content was analyzed after propidium iodide staining using FACS (BD Accuri C6 flow cytometer).
(§2) For immunofluorescence, cells were fixed in cold methanol, washed in PBT (PBS supplemented with 0.05% Tween-20) and stained with the following primary antibodies: 1:200 rabbit anti-pT288 (Cell Signaling, C39D8), 1:200 rabbit anti-pH3S10 (Cell Signaling, D2C8), 1:500 mouse anti-α-tubulin (Transduction Laboratories, 612709), 1:300 mouse anti-GFP (MAB3580, Millipore), 1:200 anti-TPX2 (Santa Cruz Biotechnology, sc-32863), anti-Aurora A (Invitrogen, 458900). Secondary antibodies were anti-mouse conjugated to Alexa488 or Alexa568, as well as anti-rabbit conjugated to Alexa488 or Alexa568, all used at 1:500 (Invitrogen). Confocal images were acquired on a Zeiss LSM 710 confocal microscope equipped with a Axiocam MRm (B/VVW) CCD camera using a 63×NA 1.0 oil objective and processed in ImageJ and Adobe Photoshop, maintaining relative image intensities within a series.

A further experiment has as its target T1, Aurora A bound to TPX2 (Homo sapiens, UniProt O14965).
T1 construct: human Aurora A kinase domain (residues 122-403 in the pET24-d vector); His-tag (cleaved yes); made in house; host or cells: E. coli
T1 sequence (O14965 122-403): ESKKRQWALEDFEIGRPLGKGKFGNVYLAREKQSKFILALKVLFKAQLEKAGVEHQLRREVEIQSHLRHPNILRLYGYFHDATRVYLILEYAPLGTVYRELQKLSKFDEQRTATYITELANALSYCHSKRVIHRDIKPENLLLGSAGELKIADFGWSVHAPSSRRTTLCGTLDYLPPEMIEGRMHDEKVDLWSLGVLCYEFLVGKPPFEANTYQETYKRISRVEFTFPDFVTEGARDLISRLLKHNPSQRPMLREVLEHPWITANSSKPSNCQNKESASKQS
In words: Aurora A kinase activity and inhibition in the presence of TPX2. The following applies: TPX2 present. Format: biochemical.

The target in the next experiment is T2, GFP-Aurora A-Arg137Ala (Homo sapiens, UniProt O14965, R137A).
T2 construct: All Aurora A clones were constructed using full-length Aurora A as a template; expressed in transfected cells; host or cells: HeLa Kyoto
T2 sequence (O14965 1-403 R137A): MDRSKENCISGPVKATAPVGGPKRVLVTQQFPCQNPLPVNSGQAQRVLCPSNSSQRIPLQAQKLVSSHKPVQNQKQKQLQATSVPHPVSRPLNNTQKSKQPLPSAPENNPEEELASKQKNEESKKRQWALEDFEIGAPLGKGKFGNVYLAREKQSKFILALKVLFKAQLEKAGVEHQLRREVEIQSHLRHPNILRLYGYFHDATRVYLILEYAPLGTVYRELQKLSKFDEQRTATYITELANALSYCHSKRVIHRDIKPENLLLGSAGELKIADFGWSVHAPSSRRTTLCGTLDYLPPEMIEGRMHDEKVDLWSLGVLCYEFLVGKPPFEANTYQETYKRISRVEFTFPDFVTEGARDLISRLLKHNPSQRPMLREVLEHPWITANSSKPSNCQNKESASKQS
In words: Phenotypic rescue, cells expressing mutant Aurora A. Format: cell-based. Here is the method: as §1, with “For rescue experiments, HeLa Kyoto cells were first transfected with GFP-Aurora A, GFP-Aurora AR137A or GFP-Aurora AW277A for 20 h, followed by incubation with 9 for another 20 h before cells were fixed with cold methanol and stained.” left out

Another experiment concerns pThr288 Aurora A. The experiment can be described thus: Phosphorylation of Aurora A Thr288 in cells. Format: cell-based, human. The note with it: cells; read-out: cellular IC50 (pT288), phosphorylation of Aurora A Thr288. The procedure: as §1
as §2, with “Confocal images were acquired on a Zeiss LSM 710 confocal microscope equipped with a Axiocam MRm (B/VVW) CCD camera using a 63×NA 1.0 oil objective and processed in ImageJ and Adobe Photoshop, maintaining relative image intensities within a series.” left out

Another experiment concerns the target T3, AuroraB/INCENP complex (Homo sapiens, UniProt Q96GD4).
T3 construct: purchased Millipore 14-835
In words: HTRF kinase assay, AuroraB/INCENP complex. Format: biochemical. Here is the method: Aurora A and AuroraB kinases were assayed using the homogeneous time-resolved fluorescence (HTRF) KinEASE STK2 kit from Cisbio (France). […] For both enzymes, the reactions were run for 30 min at room temperature and stopped by the addition of 10 μL of detection buffer containing EDTA, antiphospho-Ser/Thr antibody labelled with europium cryptate, and XL-665 conjugated streptavidin (62.5 nM final concentration). After incubation at room temperature for one hour, fluorescence was measured at 620 nm (europium cryptate) and 665 nm (XL-665) after excitation at 317 nm (lag time 60 μs, integration time 500 μs) using a Tecan Infinite M1000 PRO microplate reader (Greiner 384-well plates, white, non-binding, small volume). The ratio of fluorescence (665 nm/620 nm) was calculated for each well and the results were expressed as follows: specific signal=ratio (sample)−ratio (negative control), where ratio=665 nm/620 nm×10^4. Compounds were measured in threefold serial dilutions at 10 different concentrations, covering the concentration range from no to full inhibition. Each concentration was measured in duplicates, and two independent determinations were made for each IC50 value. IC50 curves were generated using a four-parameter logistic model (XLfit from IDBS).

T3 sequence (Q96GD4 whole entry): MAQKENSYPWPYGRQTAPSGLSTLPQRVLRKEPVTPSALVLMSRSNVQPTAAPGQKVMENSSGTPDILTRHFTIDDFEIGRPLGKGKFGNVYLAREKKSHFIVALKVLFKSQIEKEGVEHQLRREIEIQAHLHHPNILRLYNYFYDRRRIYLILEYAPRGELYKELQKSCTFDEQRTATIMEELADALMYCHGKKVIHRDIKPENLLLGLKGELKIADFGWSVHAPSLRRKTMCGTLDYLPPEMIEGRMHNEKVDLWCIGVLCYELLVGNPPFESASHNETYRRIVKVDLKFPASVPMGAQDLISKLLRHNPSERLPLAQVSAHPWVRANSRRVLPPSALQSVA
T3 sequence (Q9NQS7 whole entry partner): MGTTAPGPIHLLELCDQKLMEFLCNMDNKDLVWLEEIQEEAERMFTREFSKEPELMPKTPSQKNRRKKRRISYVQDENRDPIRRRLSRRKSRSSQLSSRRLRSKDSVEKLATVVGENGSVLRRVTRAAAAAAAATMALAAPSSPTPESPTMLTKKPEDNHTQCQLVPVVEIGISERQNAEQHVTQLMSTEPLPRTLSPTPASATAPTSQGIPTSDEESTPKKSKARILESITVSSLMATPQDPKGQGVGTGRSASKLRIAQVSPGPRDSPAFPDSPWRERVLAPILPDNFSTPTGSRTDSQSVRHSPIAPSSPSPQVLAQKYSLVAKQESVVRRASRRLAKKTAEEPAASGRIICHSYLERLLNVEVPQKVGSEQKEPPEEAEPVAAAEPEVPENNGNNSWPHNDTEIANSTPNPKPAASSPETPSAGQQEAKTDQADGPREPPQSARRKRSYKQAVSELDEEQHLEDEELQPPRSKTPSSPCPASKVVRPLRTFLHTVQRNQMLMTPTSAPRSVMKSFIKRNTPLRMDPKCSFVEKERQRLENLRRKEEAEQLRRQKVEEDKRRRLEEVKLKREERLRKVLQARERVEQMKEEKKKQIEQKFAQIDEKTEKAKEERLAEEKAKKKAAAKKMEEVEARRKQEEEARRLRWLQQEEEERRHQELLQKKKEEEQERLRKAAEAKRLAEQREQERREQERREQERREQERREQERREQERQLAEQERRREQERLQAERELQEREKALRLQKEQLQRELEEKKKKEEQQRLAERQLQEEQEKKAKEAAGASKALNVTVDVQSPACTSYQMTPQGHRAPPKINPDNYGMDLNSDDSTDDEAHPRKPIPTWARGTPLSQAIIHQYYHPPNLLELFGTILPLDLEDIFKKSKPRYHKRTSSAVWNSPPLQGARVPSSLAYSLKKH
Experimental for Aurora A bound to TPX2: Aurora A and AuroraB kinases were assayed using the homogeneous time-resolved fluorescence (HTRF) KinEASE STK2 kit from Cisbio (France). […] For both enzymes, the reactions were run for 30 min at room temperature and stopped by the addition of 10 μL of detection buffer containing EDTA, antiphospho-Ser/Thr antibody labelled with europium cryptate, and XL-665 conjugated streptavidin (62.5 nM final concentration). After incubation at room temperature for one hour, fluorescence was measured at 620 nm (europium cryptate) and 665 nm (XL-665) after excitation at 317 nm (lag time 60 μs, integration time 500 μs) using a Tecan Infinite M1000 PRO microplate reader (Greiner 384-well plates, white, non-binding, small volume). The ratio of fluorescence (665 nm/620 nm) was calculated for each well and the results were expressed as follows: specific signal=ratio (sample)−ratio (negative control), where ratio=665 nm/620 nm×10^4. […] Each concentration was measured in duplicates, and two independent determinations were made for each IC50 value. IC50 curves were generated using a four-parameter logistic model (XLfit from IDBS).

Regarding `CCc1ccc(N=C2SC(=Cc3ccnc(Nc4ccc(C(=O)O)cn4)c3)C(=O)N2C)cc1` [Compound 9], the “effect on Aurora B activity in cells” value in experiment [1] is recorded as “no effect; also recorded: without impairing Aurora B function”. Also, the IC50 in experiment [1] (Aurora B/INCENP, cells, read-out: cellular IC50 (pH3)) is greater than 25000 nM; at Aurora A bound to TPX2, 1400 nM; in the experiment with pThr288 Aurora A, 760 nM; at AuroraB/INCENP complex (20 μM ATP, HTRF, read-out: IC50 Aurora B in complex with INCENP (biochemical)) it was 149 ± 3 nM. For the same compound, the “distribution of phospho-Histone H3 Ser10” value in experiment [1] (treated cells) is given as “remained unchanged”. Besides, the “sensitivity of GFP-Aurora A-Arg137Ala to inhibitor” value on GFP-Aurora A-Arg137Ala is recorded as “insensitive”. Also, the “weaker inhibition of Aurora B/INCENP compared to KD measured with free Aurora B” value on AuroraB/INCENP complex (IC50 Aurora B/INCENP versus KD free Aurora B) amounted to 15 fold.
